In patent US11963996B2, “Method of treating knee pain” (ORTHOTROPHIX, Inc., priority 2018, dated 2024):
“Also recorded” adds a separate entry of the source.

What was measured:
[1] = system: subjects with bilateral patello-femoral knee osteoarthritis; assay: Same study: MRI-based patello-femoral and tibiofemoral cartilage thickness; assay type: in vivo, human
Method: (§1) Subjects returned to their respective study sites at 3, 6 and 12 months after the first dosing day for follow-up evaluations. In addition, the study sites monitored the subject's condition through telephone contact 9 months after the first dosing day. During the 3, 6, and 12 months post-treatment, subjects were evaluated on site with physical examinations, vital signs, serum chemistries, as well as completing patient-reported outcomes including the KOOS. Adverse events and concomitant medications were recorded. MRIs of both knees were obtained during the 6 and 12-month visits.
All KOOS subscale scores, WOMAC Total score and subscale scores, MRI-based patello-femoral and tibiofemoral cartilage thickness, and MRI-based periarticular bone area and 3D bone shape were analyzed.
MRI images were provided to central readers cartilage and periarticular bone measures. Central readers were blind as to treatment assignment.
Statistical analyses were carried out using a two-sided paired t-test at the 5% level of significance. The outcome variables were the differences of the change of the score of each subscale of KOOS, change of cartilage thickness, periarticular bone area, and 3D bone shape score (“B Score”) change from baseline to 6 and 12 months in the treated knee (“Index Knee”) compared with the placebo-exposed knee (“Control Knee”).

[2] = system: subjects with bilateral patello-femoral knee osteoarthritis; assay: Same study: safety and tolerability; assay type: in vivo, human
Method: The study was divided into Part A and Part B. The Part A was designed to evaluate safety of intra-articular (I.A.) administration of TPX-100 at different dosing levels (20, 50, 100, or 200 mg per injection in sequential cohorts) in the subjects with osteoarthritis of the knees and to select a dose for Part B. Part B was to evaluate safety and efficacy of the selected dose of TPX-100.
Subjects in Part A were enrolled in sequential cohorts and randomized to receive 20, 50, 100 or 200 mg of TPX-100 in one knee (Index Knee) and identical placebo in the contralateral (Control) knee. Subjects, sites and sponsor and central MRI readers were blinded as to treatment assignment. A Safety Review Committee (SRC) evaluated safety in each dosing cohort. The SRC assessed safety and determined whether the next higher dosing regimen could be enrolled. All dosing cohorts in Part A were completed and analyzed with regard to safety prior to dose selection and initiation of Part B.
On the first dosing day, the randomized subjects were assessed by physical examinations and vital signs. Further, they completed the Knee injury and Osteoarthritis Outcome Score (KOOS), which includes the Western Ontario and McMaster Universities Osteoarthritis Index (WOMAC). The KOOS questionnaire assesses knee-specific activities of daily living, sports and recreation, knee-related quality of life, other symptoms such as stiffness, and knee pain. The KOOS has been used extensively in longitudinal studies of knee osteoarthritis. After assessments were completed, subjects received one intra-articular injection in each knee, with each injection prepared from the vial(s) marked for that knee. One knee received TPX-100, and the contralateral knee received placebo with subject, site, and sponsor blinded to treatment assignment. Subjects were monitored for adverse events during the injections and for a few hours after the injections. Vital signs were also monitored after the injections.
On the 7th, 14th, and 21st days after the first dosing, subjects received the second, third, and fourth (last) dosing of the same study materials, respectively. Safety and adverse event assessments were obtained as on the first dosing day.
as §1

[3] = system: subjects with bilateral patello-femoral knee osteoarthritis; assay: Example 2: re-analysis of the study with stricter MRI image qualification (79 subjects); assay type: in vivo, human
Method: After the data analyses in EXAMPLE 1, a few more MRI images were questioned with regard to their technical quality to enable assessment of periarticular bone shape change over time. In order to assure the quality of the overall analysis results, a stricter qualification standard was applied to the MRI images used in EXAMPLE 1, and requalification was performed. Seventy-nine (79) subjects were requalified. The MRI knee images of these subjects were re-analyzed for their periarticular bone shape changes, as well as their correlations with the changes of tibiofemoral cartilage thickness and pain, respectively, in the same manner as described in EXAMPLE 1.
The requalified 79 subjects were included in the efficacy analysis per the Statistical Analysis Plan.

[4] = system: healthy volunteers; assay: GLP toxicology studies and Phase 1 clinical study with healthy volunteers; settings: human, in vivo
Description: In non-clinical safety and efficacy studies, TPX-100 was first tested for its bone formation activity.

[5] = system: alveolar bone; assay: Phase 2 study of alveolar bone formation; assay type: in vivo, human; settings: drug vs placebo
Method: Based on these safety and bone and dentin formation data, TPX-100 was tested in two Phase 2 studies for alveolar bone and dentin formation activities, respectively.

[6] = Index vs Control Knees, 6 or 12 months
[7] = Example 2, 79 requalified subjects, Index vs Control knees, 6 or 12 month, or both
[8] = Example 2, Index vs Control Knees, 12 months

TPX-100: synthetic peptide consisting of 23 amino acids, TDLQERGDNDISPFSGDGQPFKD, derived from human Matrix Extracellular Phosphoglycoprotein (MEPE)
Overall tibiofemoral cartilage thickness change from baseline [1, 6]: not measurably different between Index and Control Knees | Patello-femoral (patella) cartilage thickness change from baseline by MRI (primary endpoint) [1, 6]: no statistically significant difference between Index vs. Control Knees; also recorded: no measurable difference between Index and Control Knees | Tibiofemoral cartilage thickness change in TPX-100-treated responder knees ([1]; knees with clinically meaningful functional improvements, baseline to 12 months): significantly increased | Safety and tolerability ([2]; 200 mg per dose, 4 once-weekly intra-articular injections): safe and well tolerated | Dose-limiting toxicities ([2]; Part A, 20, 50, 100 and 200 mg per injection): no dose-limiting toxicities | Severe adverse events related to treatment ([2]; in vivo): no severe adverse events that were related to TPX-100 treatment | Severity of treatment-related adverse events ([2]; in vivo): mild or moderate, transient | KOOS ADL improvement [3, 7]: clinically meaningful and statistically significant (p<0.05) improvements | KOOS Knee-related QOL improvement [3, 7]: clinically meaningful and statistically significant (p<0.05) improvements | WOMAC Function improvement [3, 7]: clinically meaningful and statistically significant (p<0.05) improvements | 3D periarticular femur bone shape change (bone shape score) ([3]; Example 2, Index vs Control Knees, 6 and 12 months): statistically significant (p<0.05) delay of femur bone shape change | KOOS Pain subscale improvement [3, 8]: clinically meaningful improvement in Index Knees with a trend towards statistical significance (p<0.09) | Pain bending knee fully (KOOS Pain question) [3, 8]: significantly improved (p<0.05) | Pain frequency (KOOS Pain question) [3, 8]: significantly improved (p<0.05) | Pain going up or down stairs (KOOS Pain question) [3, 8]: significantly improved (p<0.05) | 3D bone shape change in patella in pain frequency responders ([3]; Example 2, responders): eventually no change in the 3D bone shape in patella | Pain frequency in responders, baseline to 12 months ([3]; Example 2, responders to TPX-100): decreased from daily pain at baseline to semi-monthly pain at 12 months | Safety in GLP toxicology studies and Phase 1 study [4]: Safety of the TPX-100 peptide was further confirmed | Alveolar bone formation [5]: did not show a difference between drug vs. placebo-exposed groups
